Measurements: PMC4076079, “Selective inhibitors of a PAF biosynthetic enzyme lysophosphatidylcholine acyltransferase 2” (Journal of Lipid Research, 2014)
“And” between values parts separate entries of the source, which are not always exact repeats. Identical values can stand only once.

Columns and labels:
Type in all cases: biochemical
[1] = target: T1, hLPCAT2 (Homo sapiens, UniProt Q7L5N7); assay: lyso-PAFAT (acetyltransferase) activity assay, PAF product by LC-MS/MS; conditions: for IC50: 0, 0.2, 0.6, 2, 6 and 20 μM of each compound in triplicate, LC-MS/MS, read-out: IC50, product PAF, enzyme hLPCAT2; for percentage inhibition, product PAF, hLPCAT2: 20 μM compound, microsomal fractions of nonstimulated CHO-S-PAFR cells, n = 3, mean ± SEM; for selectivity for hLPCAT2 over hLPCAT1: from IC50 values of Table 1
T1 construct: expressed in transfected cells; host or cells: CHO-S-PAFR cells (microsomal fraction), with or without mcPAF stimulation
T1 sequence (Q7L5N7 1-544): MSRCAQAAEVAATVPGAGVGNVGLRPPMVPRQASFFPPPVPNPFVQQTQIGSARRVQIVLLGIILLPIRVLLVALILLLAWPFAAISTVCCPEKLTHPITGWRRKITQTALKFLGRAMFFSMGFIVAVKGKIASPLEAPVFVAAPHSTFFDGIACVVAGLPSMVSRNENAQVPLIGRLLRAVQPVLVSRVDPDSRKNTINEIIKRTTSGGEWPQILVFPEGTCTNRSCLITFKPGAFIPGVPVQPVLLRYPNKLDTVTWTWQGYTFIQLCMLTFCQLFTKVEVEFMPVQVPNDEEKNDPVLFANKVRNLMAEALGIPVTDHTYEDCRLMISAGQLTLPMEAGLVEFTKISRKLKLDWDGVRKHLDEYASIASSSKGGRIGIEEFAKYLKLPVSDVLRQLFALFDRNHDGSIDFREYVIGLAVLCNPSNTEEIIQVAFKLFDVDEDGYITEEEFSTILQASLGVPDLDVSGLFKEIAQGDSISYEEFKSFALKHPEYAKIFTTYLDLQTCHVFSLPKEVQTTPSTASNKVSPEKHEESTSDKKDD
Protocol: (§1) Microsomal protein fractions (0.5 μg) supplemented with the indicated compound concentrations were added to the reaction mixture containing 100 mM Tris-HCl (pH 7.4), 1 μM CaCl2, 0.015% Tween-20, and two substrates. For acetyltransferase activity, the substrates were 1 mM acetyl-CoA and 5 μM d4-lyso-PAF; for the acyltransferase activity of LPCAT1 or LPCAT2, the substrates were, respectively, palmitoyl-CoA and d31-16:0 LPC or arachidonoyl-CoA and d4-lyso-PAF (all 5 μM). Each lysophospholipid contained fatty acid at the sn-1 position. After incubation at 37°C for 5 min, the reactions were stopped by adding 300 μl methanol containing 17:0 LPC or 14:0/14:0 PC as an internal standard. Deuterium-labeled products were analyzed by LC-MS/MS (Waters, Milford, MA and Thermo Scientific, Waltham, MA). […]
(§2) Steps 2 to 5 screening: 96-well plate assay
(§3) Acetyltransferase and acyltransferase assays were developed in 96-well plates. The microsomal hLPCAT2, obtained from mcPAF-stimulated CHO-S-PAFR cells was used in steps 1, 2, and 5. The microsomal hLPCAT1 obtained from unstimulated CHO-S cells was used in steps 3 to 5. Each well of the 96-well plates contained 30 µl of 15 µg/ml protein, 600 nl of 2 mM compound, 30 µl buffer C, and two substrates (Fig. 1B and C).
(§4) Substrate concentrations were as follows: acetyl-CoA, 250 or 1000 µM acetyl-CoA; […]
(§5) arachidonoyl-CoA, 5 µM; palmitoyl-CoA, 5 µM; d4-lyso-PAF, 5 µM; and d31-LPC, 5 µM.
For step 5, compound concentrations were 0, 0.167, 0.67, 2, 6.7, and 20 µM. The deuterium-labeled products were measured by LC-MS/MS. Percentage inhibition (steps 2 to 4) or IC50 (step 5) was used as the hit criterion.
Step 6 screening: BSA assay
The acetyltransferase assay was performed with 20 µM of each compound and microsomal hLPCAT2 from step 1. The assay mixture contained 0.4% BSA and two substrates for lyso-PAFAT activity: 1 mM acetyl-CoA and 5 µM d4-lyso-PAF. Percentage inhibition values were determined.
(§6) Step 7 screening: species-specific differences
(§7) To evaluate the effects on the activity of mouse or human LPCAT1 and LPCAT2, each microsomal fraction was obtained using CHO-S-PAFR cells with or without mcPAF (200 nM) stimulation for 5 min. Acetyltransferase and acyltransferase assays were performed with 20 µM of each compound. Percentage inhibition was calculated in each

[2] = target: T1, hLPCAT2; assay: acyltransferase activity assay, 16:0/20:4 alkyl-PC product by LC-MS/MS; conditions: for IC50: 0, 0.2, 0.6, 2, 6 and 20 μM of each compound in triplicate, LC-MS/MS, read-out: IC50, product Alkyl-PC (16:0/20:4 alkyl-PC), enzyme hLPCAT2; for percentage inhibition, product 16:0/20:4 Alkyl-PC, hLPCAT2: 20 μM compound, microsomal fractions of nonstimulated CHO-S-PAFR cells, n = 3, mean ± SEM
Protocol: as §1, §2, §3, §4, §5
For step 5, compound concentrations were 0, 0.167, 0.67, 2, 6.7, and 20 µM. The deuterium-labeled products were measured by LC-MS/MS. Percentage inhibition (steps 2 to 4) or IC50 (step 5) was used as the hit criterion. […]
as §6, §7

[3] = target: T2, mLPCAT1 (Mus musculus, UniProt Q3TFD2); assay: acyltransferase activity assay, DPPC product; conditions: 20 μM compound; microsomal fractions of nonstimulated CHO-S-PAFR cells; n = 3, mean ± SEM
T2 construct: expressed in transfected cells; host or cells: CHO-S-PAFR cells, microsomal fraction
T2 sequence (Q3TFD2 1-534): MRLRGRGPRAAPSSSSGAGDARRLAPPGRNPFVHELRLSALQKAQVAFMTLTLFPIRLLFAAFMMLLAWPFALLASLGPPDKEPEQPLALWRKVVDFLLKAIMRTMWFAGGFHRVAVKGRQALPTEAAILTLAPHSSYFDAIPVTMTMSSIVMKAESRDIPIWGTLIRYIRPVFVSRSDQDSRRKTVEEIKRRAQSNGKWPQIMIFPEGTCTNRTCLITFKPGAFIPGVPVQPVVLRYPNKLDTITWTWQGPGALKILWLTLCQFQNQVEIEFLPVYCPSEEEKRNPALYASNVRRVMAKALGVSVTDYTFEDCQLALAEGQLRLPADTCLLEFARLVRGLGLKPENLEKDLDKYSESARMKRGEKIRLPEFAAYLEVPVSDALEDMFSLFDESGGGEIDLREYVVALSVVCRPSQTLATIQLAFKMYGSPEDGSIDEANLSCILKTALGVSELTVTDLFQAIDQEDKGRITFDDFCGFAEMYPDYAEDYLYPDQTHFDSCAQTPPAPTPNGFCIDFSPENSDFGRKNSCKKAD
Protocol: as §1
arachidonoyl-CoA, 5 µM; palmitoyl-CoA, 5 µM; d4-lyso-PAF, 5 µM; and d31-LPC, 5 µM. […]
deuterium-labeled products were measured by LC-MS/MS. […]
as §6, §7

Row | SMILES | IC50 [1] | percentage inhibition, product PAF, hLPCAT2 [1] [percentage] | selectivity for hLPCAT2 over hLPCAT1 [1] | IC50 [2] [µM] | percentage inhibition, product 16:0/20:4 Alkyl-PC, hLPCAT2 [2] [percentage] | percentage inhibition, product DPPC, mLPCAT1 [3] [percentage]
1 | CC(C)OC(=O)c1ccc(N2C(=O)C(Cl)=C(Cl)C2=O)cc1 [TSI-01, propan-2-yl 4-(3,4-dichloro-2,5-dioxopyrrol-1-yl)benzoate] | 0.47 µM | 99.8 ± 0.1 | approximately 10 fold | 1.27 | 95.2 ± 1.3 | 28.2 ± 4.0
2 | O=C1C(Cl)=C(N2CCOCC2)C(=O)N1c1ccc(Oc2ccccc2)cc1 [TSI-02, 3-chloro-4-morpholin-4-yl-1-(4-phenoxyphenyl)pyrrole-2,5-dione] | 2.17 µM |  |  | 1.16 |  | 
3 | CC(C)OC(=O)c1ccc(N2C(=O)C(Cl)=C(Nc3ccccc3O)C2=O)cc1 [TSI-07] | 5.5 µM | 90.8 ± 3.0 | approximately 10 fold | 13.3 | 83.1 ± 4.3 | 36.3 ± 5.7
4 | CCCOC(=O)c1ccc(N2C(=O)C(Cl)=C(Cl)C2=O)cc1 [TSI-10] | ~0.1 µM and 0.13 µM | 99.5 ± 0.2 | approximately 10 fold | 0.3 | 85.4 ± 3.0 | 14.8 ± 10.9
5 | CCCCOC(=O)c1ccc(N2C(=O)C(Cl)=C(Cl)C2=O)cc1 [TSI-11, butyl 4-(3,4-dichloro-2,5-dioxopyrrol-1-yl)benzoate] | ~0.1 µM and 0.14 µM | 99.4 ± 0.2 | approximately 10 fold | 0.33 | 80.4 ± 2.7 | 12.2 ± 20.5
